Assay results as given in US20100267697A1, “ION CHANNEL MODULATORS” (Wyeth, priority 2006, published 2010).
Counter-ions that a name gives are not always drawn. Like-named read-outs stand apart in the source and are kept apart here.

Target: T1, Cav2.2 (Homo sapiens, UniProt Q00975)
T1 construct: expressed in transfected cells; host or cells: HEK-293T/17 (transient, FuGENE 6)
Assay: HEK assay (whole-cell patch clamp, transiently transfected HEK-293T/17 cells, pulses P1 and P5)
Assay type: cell-based
Settings: holding potential −100 mV
Method: HEK-293T/17 cells were transiently transfected in a similar manner as described in FuGENE 6 Package Insert Version 7, April 2002, Roche Applied Science, Indianapolis, Ind. The cells were plated at 2.5×10^5 cells in 2 mL in a 6-well plate, incubated for one night, and achieved a ˜30-40% confluence. In a small sterile tube, sufficient serum-free medium was added as diluent for FuGENE Transfection Reagent (Roche Applied Science, Indianapolis, Ind.) to a total volume of 100 μL. To this medium was added 3 μL of FuGENE 6 Reagent. The mixture was tapped gently to mix. To the prediluted FuGENE 6 Reagent was added 2 μg of DNA solution (0.8-2.0 μg/μL). The DNA/Fugene 6 mixture was gently pipeted to mix the contents and incubated for about 15 minutes at room temperature. The complex mixture was then added to the HEK-293T/17 cells, distributed around the well, and swirled to ensure even dispersal. The cells were returned to the incubator for 24 hours. The transfected cells were then replated at density 2.5×10^5 in a 35 mm dish with 5 glass coverslips and grew in low serum (1%) media for 24 hours. Coverslips with isolated cells were then transferred into a chamber, and calcium channel (e.g., L-type, N-type, etc.) current or other currents for counter screening were recorded from the transiently transfected HEK-293T/17 cells.
The whole-cell voltage clamp configuration of the patch clamp technique was employed to evaluate voltage-dependent calcium currents essentially as described by Thompson and Wong (1991), J. Physiol., 439: 671-689, the entire disclosure of which is herein incorporated by reference. To record calcium channel (e.g., L-type, N-type, etc.) currents for evaluation of inhibitory potency of compounds (steady-state concentration-response analysis), five pulses of 20-30 ms voltage steps to about +10 mV (the peak of the current voltage relationship) were delivered at five Hz every 30 second from a holding potential at −100 mV. In order to obtain an estimate of the degree of use-dependent block of the test compounds, IC50 values were determined at the first and fifth pulse of the train (P1 and P5, respectively, in Table 2). Compound evaluations were carried out essentially as described by Sah D. W. and Bean B. P. (1994), Mol. Pharmacol., 45:84-92, the entire disclosure of which is herein incorporated by reference.

[1] = fifth pulse (P5) of 5 Hz train, read-out: HEK Cav2.2 P5 IC50
[2] = first pulse (P1) of 5 Hz train, read-out: HEK Cav2.2 P1 IC50

T1 sequence (Q00975 whole entry): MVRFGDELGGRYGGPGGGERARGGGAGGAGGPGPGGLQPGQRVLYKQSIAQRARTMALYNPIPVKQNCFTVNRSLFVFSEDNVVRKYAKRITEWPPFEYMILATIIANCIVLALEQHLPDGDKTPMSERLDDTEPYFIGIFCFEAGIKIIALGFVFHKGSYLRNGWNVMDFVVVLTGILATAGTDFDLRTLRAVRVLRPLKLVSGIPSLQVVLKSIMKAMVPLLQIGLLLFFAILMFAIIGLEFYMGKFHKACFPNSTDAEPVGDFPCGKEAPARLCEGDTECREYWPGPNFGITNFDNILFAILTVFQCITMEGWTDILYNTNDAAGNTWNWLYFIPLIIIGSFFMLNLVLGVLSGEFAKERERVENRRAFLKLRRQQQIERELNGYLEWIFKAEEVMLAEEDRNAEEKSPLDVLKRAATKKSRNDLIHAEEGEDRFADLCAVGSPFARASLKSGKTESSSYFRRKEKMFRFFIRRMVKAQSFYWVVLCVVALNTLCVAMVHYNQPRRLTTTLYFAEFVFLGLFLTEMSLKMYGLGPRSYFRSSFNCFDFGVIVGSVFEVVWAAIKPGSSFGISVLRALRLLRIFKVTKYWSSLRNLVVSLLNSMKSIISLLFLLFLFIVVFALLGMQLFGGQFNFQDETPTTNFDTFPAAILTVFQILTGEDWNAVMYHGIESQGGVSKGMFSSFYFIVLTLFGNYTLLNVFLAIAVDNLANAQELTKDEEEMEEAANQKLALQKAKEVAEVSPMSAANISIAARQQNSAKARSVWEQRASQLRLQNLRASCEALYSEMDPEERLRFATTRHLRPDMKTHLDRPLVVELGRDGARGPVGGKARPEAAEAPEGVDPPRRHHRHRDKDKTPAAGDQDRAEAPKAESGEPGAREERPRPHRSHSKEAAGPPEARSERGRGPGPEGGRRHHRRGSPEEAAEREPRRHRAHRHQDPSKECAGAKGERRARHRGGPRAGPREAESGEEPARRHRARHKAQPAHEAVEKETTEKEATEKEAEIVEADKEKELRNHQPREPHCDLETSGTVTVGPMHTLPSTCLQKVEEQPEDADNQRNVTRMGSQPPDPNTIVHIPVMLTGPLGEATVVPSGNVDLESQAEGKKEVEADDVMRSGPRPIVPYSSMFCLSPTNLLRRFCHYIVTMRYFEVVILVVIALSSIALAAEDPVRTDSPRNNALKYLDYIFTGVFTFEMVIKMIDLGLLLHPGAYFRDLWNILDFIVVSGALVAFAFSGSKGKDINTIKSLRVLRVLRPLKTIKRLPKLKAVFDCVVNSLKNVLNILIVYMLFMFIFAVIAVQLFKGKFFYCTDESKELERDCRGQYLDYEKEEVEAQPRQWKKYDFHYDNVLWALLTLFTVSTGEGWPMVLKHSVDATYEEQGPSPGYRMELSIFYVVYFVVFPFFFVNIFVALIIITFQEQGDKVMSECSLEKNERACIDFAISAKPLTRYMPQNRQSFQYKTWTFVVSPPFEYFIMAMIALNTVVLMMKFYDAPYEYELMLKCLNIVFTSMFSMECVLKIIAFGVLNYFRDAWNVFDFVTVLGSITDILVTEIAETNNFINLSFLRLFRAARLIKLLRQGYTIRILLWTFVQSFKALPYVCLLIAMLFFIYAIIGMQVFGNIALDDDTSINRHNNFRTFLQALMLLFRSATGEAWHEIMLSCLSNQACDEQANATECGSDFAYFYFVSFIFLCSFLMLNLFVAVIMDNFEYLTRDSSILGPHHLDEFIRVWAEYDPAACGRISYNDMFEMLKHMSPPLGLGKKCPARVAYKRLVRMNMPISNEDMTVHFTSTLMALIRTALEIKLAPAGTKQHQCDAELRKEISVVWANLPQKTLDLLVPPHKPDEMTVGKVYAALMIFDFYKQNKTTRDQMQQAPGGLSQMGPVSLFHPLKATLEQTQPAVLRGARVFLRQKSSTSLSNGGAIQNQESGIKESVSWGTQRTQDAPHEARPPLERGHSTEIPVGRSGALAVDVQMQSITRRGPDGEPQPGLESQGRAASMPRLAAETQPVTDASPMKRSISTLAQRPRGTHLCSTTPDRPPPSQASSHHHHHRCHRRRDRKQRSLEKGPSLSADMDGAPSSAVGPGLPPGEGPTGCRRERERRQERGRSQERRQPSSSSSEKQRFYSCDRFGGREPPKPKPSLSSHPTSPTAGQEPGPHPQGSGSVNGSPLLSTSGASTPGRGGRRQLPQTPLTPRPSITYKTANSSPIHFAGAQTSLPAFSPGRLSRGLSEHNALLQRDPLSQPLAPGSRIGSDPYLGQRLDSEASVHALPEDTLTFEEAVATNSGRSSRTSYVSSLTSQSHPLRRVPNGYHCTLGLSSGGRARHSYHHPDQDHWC
T1 sequence (P54284 whole entry partner): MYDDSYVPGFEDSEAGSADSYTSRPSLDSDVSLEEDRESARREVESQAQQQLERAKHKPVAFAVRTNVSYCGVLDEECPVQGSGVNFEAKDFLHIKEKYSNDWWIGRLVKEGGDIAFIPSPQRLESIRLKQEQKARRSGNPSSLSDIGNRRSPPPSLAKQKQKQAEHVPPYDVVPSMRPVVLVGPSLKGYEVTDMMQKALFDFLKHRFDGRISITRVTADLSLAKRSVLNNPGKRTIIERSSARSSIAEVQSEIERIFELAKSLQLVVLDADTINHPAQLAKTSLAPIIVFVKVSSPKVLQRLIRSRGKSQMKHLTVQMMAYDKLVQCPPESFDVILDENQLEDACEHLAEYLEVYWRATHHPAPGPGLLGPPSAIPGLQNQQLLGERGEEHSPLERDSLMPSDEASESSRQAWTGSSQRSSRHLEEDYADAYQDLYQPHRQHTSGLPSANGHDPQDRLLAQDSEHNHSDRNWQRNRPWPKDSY
T1 sequence (P54289 25-946 partner limits assumed): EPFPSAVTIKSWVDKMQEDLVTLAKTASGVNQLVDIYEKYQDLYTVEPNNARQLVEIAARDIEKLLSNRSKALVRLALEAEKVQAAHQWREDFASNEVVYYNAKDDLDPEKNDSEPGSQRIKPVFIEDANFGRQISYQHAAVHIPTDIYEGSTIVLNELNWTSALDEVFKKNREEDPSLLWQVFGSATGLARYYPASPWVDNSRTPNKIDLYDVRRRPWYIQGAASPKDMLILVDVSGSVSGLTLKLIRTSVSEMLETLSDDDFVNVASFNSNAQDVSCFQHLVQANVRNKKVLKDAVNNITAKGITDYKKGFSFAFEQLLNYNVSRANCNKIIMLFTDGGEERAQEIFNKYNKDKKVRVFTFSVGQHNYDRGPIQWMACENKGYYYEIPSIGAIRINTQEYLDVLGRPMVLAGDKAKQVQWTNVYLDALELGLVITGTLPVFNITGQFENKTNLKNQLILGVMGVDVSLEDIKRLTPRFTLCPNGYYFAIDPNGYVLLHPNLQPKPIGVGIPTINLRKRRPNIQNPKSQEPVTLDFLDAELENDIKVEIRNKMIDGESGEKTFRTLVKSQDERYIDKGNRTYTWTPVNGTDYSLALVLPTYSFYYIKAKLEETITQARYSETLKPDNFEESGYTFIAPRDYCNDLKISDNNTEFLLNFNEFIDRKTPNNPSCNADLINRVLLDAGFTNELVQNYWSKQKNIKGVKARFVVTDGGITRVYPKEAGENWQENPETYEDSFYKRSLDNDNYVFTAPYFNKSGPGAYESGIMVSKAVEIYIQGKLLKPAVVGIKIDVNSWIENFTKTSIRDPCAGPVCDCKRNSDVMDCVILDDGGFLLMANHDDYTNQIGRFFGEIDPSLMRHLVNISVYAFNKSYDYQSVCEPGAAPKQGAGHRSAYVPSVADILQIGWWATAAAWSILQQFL
T1 sequence (P54289 947-1103 partner limits assumed): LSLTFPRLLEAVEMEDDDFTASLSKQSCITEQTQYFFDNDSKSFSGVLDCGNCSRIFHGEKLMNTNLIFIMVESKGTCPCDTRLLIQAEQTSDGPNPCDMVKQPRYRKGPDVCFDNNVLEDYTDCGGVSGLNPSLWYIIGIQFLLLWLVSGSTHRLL

| IC50 [1] [µM] | IC50 [2] [µM] | Compound |
| --- | --- | --- |
| 11.2 | 21 | Cc1ccc(OCCN(C)c2ccc(CN(C(=O)C(C)(C)C)c3ccc(F)cc3)cn2)nn1 [Compound 40, N-(4-Fluorophenyl)-2,2-dimethyl-N-(6-{methyl-[2-(6-methyl-pyridazin-3-yloxy)-ethyl]-amino}-pyridin-3-ylmethyl)-propionamide] |
| 1.1 | 4.5 | CCN(CC)c1nc(CN(C(=O)C(C)(C)CC)c2ccc(N(C)C)cc2)cs1 [Compound 96, N-(2-Diethylamino-thiazol-4-ylmethyl)-N-(4-dimethyalmino-phenyl)-2,2-dimethyl-butyramide] |
| 2.2 | 12.1 | CN(c1ccc(F)cc1)c1nc(CN(C(=O)C(C)(C)C)c2ccc(F)cn2)cs1 [Compound 82, N-{2-[(4-Fluorophenyl)-methyl-amino]-thiazol-4-ylmethyl}-N-(5-fluoro-pyridin-2-yl)-2,2-dimethyl-propionamide] |
| 1.4 | 4.2 | CCN(c1ccc(CN(C(=O)C(C)(C)C)c2ccc(F)cc2)cc1)C1CC1 [Compound 87, N-[4-(Cyclopropyl(ethyl)amino)-benzyl]-N-(4-fluorophenyl)-2,2-dimethyl-propionamide] |
| 3.8 | 29.1 | CC(C)(C)C(=O)N(Cc1ccc(NCCc2cccnc2)nc1)c1ccc(F)cc1 [Compound 59, N-(4-Fluorophenyl)-2,2-dimethyl-N-[6-(2-pyridin-3-yl-ethylamino)-pyridin-3-ylmethyl]-propionamide] |
| 8.5 | 33.8 | CCC(C)(C)C(=O)N(Cc1csc(N2CCOCC2)n1)c1ccc(F)cc1 [Compound 73, N-(4-Fluorophenyl)-2,2-dimethyl-N-(2-morpholin-4-yl-thiazol-4-ylmethyl)-butyramide] |
| 1.2 | 3.2 | COc1ccc(OCc2nc(CN(C(=O)C(C)(C)C)c3ccc(F)cc3)cs2)cc1 [Compound 68, N-(4-Fluorophenyl)-N-[2-(4-methoxy-phenoxymethyl)-thiazol-4-ylmethyl]-2,2-dimethyl-propionamide] |
| 5.3 | 8.9 | CCN(CC)c1ccc(CN(C(=O)C(C)(C)n2cc(CN(C)C)nn2)c2ccc(F)cc2)cn1 [Compound 54, N-(6-Diethylamino-pyridin-3-ylmethyl)-2-(4-dimethylaminomethyl-[1,2,3]triazol-1-yl)-N-(4-fluorophenyl)-isobutyramide] |
| 0.7 | 1.8 | CCN(CC)c1ccc(CN(C(=O)C(C)(C)C)c2ccccc2C(C)C)cn1 [Compound 37, N-(6-Diethylamino-pyridin-3-ylmethyl)-N-(2-isopropyl-phenyl)-2,2-dimethyl-propionamide] |
| 2.6 | 13.9 | O=C(C1CCCO1)N(Cc1ccc(N2CCN(c3ccccn3)CC2)nc1)c1ccc(F)cc1 (stereo not drawn) [Compound 109, Tetrahydro-furan-2-carboxylic acid (4-fluorophenyl)-[6-(4-pyridin-2-yl-piperazin-1-yl)-pyridin-3-ylmethyl]-amide] |
| 0.6 | 2.3 | CC(C)(C)C(=O)N(Cc1ccc(N2CCC[C@H]2COc2ccccn2)nc1)c1ccc(F)cc1 [Compound 49, N-(4-Fluorophenyl)-2,2-dimethyl-N-{6-[2-(pyridin-2-yloxymethyl)-pyrrolidin-1-yl]-pyridin-3-ylmethyl}-propionamide] |
| 8.3 | 20.3 | CC(C)(C)C(=O)N(Cc1cnc(N2CCCC2)s1)c1ccc(F)cc1 [Compound 1, N-(4-fluorophenyl)-2,2-dimethyl-N-(2-pyrrolidin-1-yl-thiazol-5-ylmethyl)-propionamide hydrochloride] |
| 0.8 | 2.2 | CCN(CC)c1ccc(CN(C(=O)C(C)(C)CC)c2ccc(N(C)C)cc2)cc1 [Compound 90, N-(4-Diethylaminobenzyl)-N-(4-dimethylamino-phenyl)-2,2-dimethyl-butyramide] |
| 7.4 | 11.6 | CC(C)(C)C(=O)N(Cc1ccc(N2CCCC2)nc1)c1ccc(F)cc1 [Compound 42, N-(4-Fluorophenyl)-2,2-dimethyl-N-(6-pyrrolidin-1-yl-pyridin-3-ylmethyl)-propionamide] |
| 0.3 | 1.1 | CN(C)c1ccc(N(Cc2csc(N(C)c3ccc(C(F)(F)F)cc3)n2)C(=O)C(C)(C)C)cc1 [Compound 89, N-(4-Dimethylamino-phenyl)-2,2-dimethyl-N-{2-[methyl-(4-trifluoromethyl-phenyl)-amino]-thiazol-4-ylmethyl}-propionamide] |
| 0.6 | 1.8 | CN(c1ccccc1)c1nc(CN(C(=O)C(C)(C)C)c2ccc(F)cc2)cs1 [Compound 65, N-(4-Fluorophenyl)-2,2-dimethyl-N-[2-(methyl-phenyl-amino)-thiazol-4-ylmethyl]-propionamide] |
| 0.4 | 2.1 | CCN(c1ccc(CN(C(=O)C2Cc3ccccc3CN2C)c2ccc(F)cc2)cn1)C1CC1 (stereo not drawn) [Compound 15, 2-methyl-1,2,3,4-tetrahydro-isoquinoline-3-carboxylic acid [6-(Cyclopropyl(ethyl)amino)-pyridin-3-ylmethyl]-(4-fluorophenyl)-amide dihydrochloride] |
| 7.6 | 17.1 | CN(CCO)c1ccc(CN(C(=O)C(C)(C)C)c2ccc(F)cc2)cn1 [Compound 38, N-(4-Fluorophenyl)-N-{6-[(2-hydroxy-ethyl)-methyl-amino]-pyridin-3-ylmethyl}-2,2-dimethyl-propionamide] |
| 0.6 | 10.1 | CCN(c1ccc(CN(C(=O)C2Cc3ccccc3CN2)c2ccc(F)cc2)cn1)C1CC1 (stereo not drawn) [Compound 14, 1,2,3,4-tetrahydro-isoquinoline-3-carboxylic acid [6-(Cyclopropyl(ethyl)amino)-pyridin-3-ylmethyl]-(4-fluorophenyl)-amide dihydrochloride] |
| 0.8 | 2.9 | CCN(CC)c1cccc(CN(C(=O)C(C)(C)C)c2ccc(F)cc2)n1 [Compound 4, N-(6-diethylamino-pyridin-2-ylmethyl)-N-(4-fluorophenyl)-2,2-dimethyl-propionamide hydrochloride] |
| 3.7 | 9.3 | CC(C)(C)Nc1ccc(CN(C(=O)C(C)(C)C)c2ccc(F)cc2)cn1 [Compound 67, N-(6-tert-Butylamino-pyridin-3-ylmethyl)-N-(4-fluorophenyl)-2,2-dimethyl-propionamide] |
| 3 | 10.2 | CCC(C)(C)C(=O)N(Cc1ccc(N2CCN(S(C)(=O)=O)CC2)nc1)c1ccc(F)cc1 [Compound 43, N-(4-Fluorophenyl)-N-[6-(4-methanesulfonyl-piperazin-1-yl)-pyridin-3-ylmethyl]-2,2-dimethyl-butyramide] |
| 2.6 | 19.1 | CC(C)(C)C(=O)N(Cc1csc(N2CCCC2)n1)c1ccc(F)cc1 [Compound 77, N-(4-Fluorophenyl)-2,2-dimethyl-N-(2-pyrrolidin-1-yl-thiazol-4-ylmethyl)-propionamide] |
| 0.5 | 2.4 | CC(C)c1cccc(N(Cc2csc(N3CCCCC3)n2)C(=O)C(C)(C)C)c1 [Compound 71, N-(3-Isopropyl-phenyl)-2,2-dimethyl-N-(2-piperidin-1-yl-thiazol-4-ylmethyl)-propionamide] |
